# Source: patent publication US11931365B2, “Use of PPAR-delta agonists in the treatment of disease” (Reneo Pharmaceuticals, Inc., priority 2022, dated 2024)
# Experiments:
# hPPARδ = biological target: T1, hPPARδ (Homo sapiens, UniProt Q03181); test: PPAR receptor transactivation assay (UAS-bla Gal4, HEK293); type: cell-based
# T1 construct: expressed in transfected cells; host or cells: Jump-In GripTite HEK293
# T1 sequence (Q03181 1-441): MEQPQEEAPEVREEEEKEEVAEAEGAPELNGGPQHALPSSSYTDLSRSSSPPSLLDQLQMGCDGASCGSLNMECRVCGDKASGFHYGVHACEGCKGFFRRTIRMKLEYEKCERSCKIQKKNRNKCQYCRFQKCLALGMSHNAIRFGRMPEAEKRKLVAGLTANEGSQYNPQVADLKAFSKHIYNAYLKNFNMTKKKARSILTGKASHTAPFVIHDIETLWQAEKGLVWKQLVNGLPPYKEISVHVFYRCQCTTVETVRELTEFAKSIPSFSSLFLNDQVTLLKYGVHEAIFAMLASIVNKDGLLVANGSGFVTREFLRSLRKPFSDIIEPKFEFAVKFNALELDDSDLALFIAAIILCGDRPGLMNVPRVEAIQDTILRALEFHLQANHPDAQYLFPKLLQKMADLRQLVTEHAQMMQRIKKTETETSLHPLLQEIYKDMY
# Experimental: Compound I was tested on all three human PPAR subtypes (hPPAR): hPPARα, hPPARγ, and hPPARδ in vitro assays testing for such activity.
# Compound I was tested on all three human PPAR subtypes (hPPAR): hPPARα, hPPARγ, and hPPARδ. All assays were repeated at least three times for each subtype.
# The genes of interest were synthesized and cloned into an appropriate Jump-In™ retargeting vector following the User Guide of the Jump-in™ T-REx™ HEK293 Retargeting Kit (ThermoFisher Catalog No A15008). For example, the vector will be used to transfect and retarget the Jump-In™ HEK293 GripTite™ parental cell line. Stable pools will be antibiotic-selected for about 21 days and tested for target gene expression by functional assay.
# Jump-In™ GripTite™ HEK293 parental cells were plated at 60-80% confluency in a T-75 flask in growth medium without antibiotics and transfected with a 1:1 ratio of expression construct and R4 integrase expression construct (20 μg DNA total) using Lipofectamine® LTX (50 μL) and PLUS™ Reagent (20 μL). Following a 48 hours incubation, cells were selected with 600 μg/mL Geneticin® and 10 μg/mL Blasticidin for ˜21 days in growth medium.
# Jump-In™ GripTite™ HEK293 rPPAR Alpha, Delta or Gamma UAS-bla-Gal4 cell pools were plated in a 384-well plate format (20,000 cells per well) in OptiMeM without FBS in replicates (n=4). Cells were allowed to adhere for 8 hours before addition of Compound I (1 mM top concentration, 3-fold dilutions, 10-point titration). After 16 hours, the cells were loaded with LiveBLAzer®, a fluorescent BLA substrate that gives a blue/green readout of expressing/non-expressing cells, respectively. The blue/green readout was measured on a fluorescent plate reader (Tecan Safire II).
# [1] = test system: PPARδ regulated genes (CPT1b, PGC-1α); test: In vivo expression of PPARδ regulated genes in muscle; details: mice muscle
# VLCAD = VLCAD enzymatic activity in cultured fibroblasts from FAOD patients with VLCAD deficiency; type: cell-based, human; details: fibroblasts from symptomatic VLCAD deficient patients
# [2] = test system: patients with FAOD (CPT2, VLCAD, LCHAD, TFP); test: Clinical trial for fatty acid oxidation disorder (FAOD); type: in vivo, human; details: for 12 MWT Mean Change / MFIS Total Mean Change / SF-36 Energy/Fatigue Mean Change / decrease in MFIS / increase in SF-36 energy/fatigue domain: Baseline to Week 12
# Excerpt: Purpose: The purposes of this study were: to assess the safety and tolerability of 12 weeks treatment with Compound I, or a pharmaceutically acceptable salt or solvate thereof (e.g., Compound II), in patients with FAOD; to investigate pharmacokinetics of Compound I, or a pharmaceutically acceptable salt or solvate thereof (e.g., Compound II), in patients with FAOD treated with Compound I, or a pharmaceutically acceptable salt or solvate thereof (e.g., Compound II); to investigate the pharmacodynamics effects of Compound I, or a pharmaceutically acceptable salt or solvate thereof (e.g., Compound II), in patients with FAOD treated with Compound I, or a pharmaceutically acceptable salt or solvate thereof (e.g., Compound II).
# Intervention: Patients were administered 10-200 mg of Compound I, or a pharmaceutically acceptable salt or solvate thereof (e.g., Compound II), per day as single agent or in combination. In one cohort, patients received 50 mg of Compound I, or a pharmaceutically acceptable salt or solvate thereof (e.g., Compound II), once daily for a total of 12 weeks. In another cohort, patients received 100 mg of Compound I, or a pharmaceutically acceptable salt or solvate thereof (e.g., Compound II), once daily for a total of 12 weeks.
# Detailed Description: Patients were given Compound I, or a pharmaceutically acceptable salt or solvate thereof, orally once a day.
# Inclusion Criteria: Confirmed diagnosis of one of the following: carnitine palmitoyl transferase II deficiency (CPT2), very long-chain Acyl-CoA dehydrogenase deficiency (VLCAD), long-chain 3-hydroxyacyl-CoA dehydrogenase deficiency (LCHAD), or trifunctional protein deficiency (TFP).
# Primary Outcome Measures: Safety Endpoints included: number and severity of adverse events. Absolute values, changes from baseline at Week 12 and incidence of clinically significant changes in: laboratory safety tests; electrocardiograms; supine vital signs; evaluation of events of special interest (rhabdomyolysis) and clinically significant changes in laboratory parameters of muscle injury including total CPK, adolase, and cardiac specific troponin (cTn).
# Pharmacodynamic Endpoints included: Absolute values and changes from baseline at Week 12 in: whole body fatty acid oxidation (^13CO2 production) and blood acylcarnitines (UHPLC-MS/MS method).
# Secondary Outcome Measures: Assessment of the change from baseline following 12 weeks of treatment with Compound I, or a pharmaceutically acceptable salt or solvate thereof (e.g., Compound II), in: submaximal treadmill exercise tolerance; distance walked during a 12 minute walk test; 36-Item Short Form Survey (SF-36) total score and subscales (questions 3-12). Change from baseline in Fatigue Impact Scale score (every visit). Change from baseline in Brief Pain Inventory (short form) (every visit). Blood inflammatory cytokines (Multiplex Immunoassay for sE-Selectin; GM-CSF; ICAM-1/CD54; IFN alpha; IFN gamma; IL-1 alpha; IL-1 beta; IL-4; IL-6; IL-8; IL-10; IL-12p70; IL-13; IL-17A/CTLA-8; IP-10/CXCL10; MCP-1/CCL2; MIP-1alpha/CCL3; MIP-1 beta/CCL4; sP-Selectin; TNF alpha).
# [3] = 24 patients, 50 or 100 mg/day, 12 weeks
smiles,measurement,setting,value
"Cc1cc(OC/C=C(/c2ccc(F)cc2)c2ccc(C#CCN3CCOCC3)cc2)ccc1OCC(=O)O [Compound I, (E)-2-(4-((3-(4-fluorophenyl)-3-(4-(3-morpholinoprop-1-yn-1-yl)phenyl)allyl)oxy)-2-methylphenoxy)acetic acid]",agonist type,hPPARδ; PPARδ,full agonist
same,selectivity for PPARδ over PPARα,hPPARδ; PPARδ over PPARα,100 fold
same,selectivity for PPARδ over PPARγ,hPPARδ; PPARδ over PPARγ,400 fold
same,"expression patterns of PPARδ regulated genes (CPT1b, PGC-1α)",[1],altered the expression patterns
same,VLCAD enzymatic activity,VLCAD,increased
same,distance walked during a 12-minute walk test,"[2]; 50 mg once daily, 12 weeks",able to increase distance walked
same,exhaled 13CO2,"[2]; 50 mg once daily, 12 weeks",trend towards increases
same,heart rate during the last ten minutes of exercise,"[2]; 50 mg once daily, 12 weeks",decreases
same,TEAEs reported as study drug related,[2]; [3],30%
same,patients discontinuing treatment,[2]; [3],12.5%
same,patients reporting rhabdomyolysis (most common TEAE),[2]; [3],16.7%
same,patients reporting treatment-emergent adverse events (TEAEs),[2]; [3],75%
same,severity of the majority of study drug related TEAEs,[2]; [3],mild or moderate
same,12 MWT Mean Change,[2]; CPT2 subgroup,51.9 meters
same,MFIS Total Mean Change,[2]; CPT2 subgroup,1.0
same,SF-36 Energy/Fatigue Mean Change,[2]; CPT2 subgroup,0.8
same,tolerability,[2]; FAOD patients,well tolerated
same,12 MWT Mean Change,[2]; LCHAD subgroup,73.7 meters
same,MFIS Total Mean Change,[2]; LCHAD subgroup,−9.8
same,SF-36 Energy/Fatigue Mean Change,[2]; LCHAD subgroup,19.5
same,decrease in MFIS,[2]; LCHAD subgroup,9.8 point
same,increase in SF-36 energy/fatigue domain,[2]; LCHAD subgroup,19.5 point
same,decrease in MFIS,[2]; TFP subgroup (n = 2),8.0 point
same,increase in SF-36 energy/fatigue domain,[2]; TFP subgroup (n = 2),25.0 point
same,12 MWT Mean Change,[2]; VLCAD subgroup,−36.7 meters
same,MFIS Total Mean Change,[2]; VLCAD subgroup,15.6
same,SF-36 Energy/Fatigue Mean Change,[2]; VLCAD subgroup,−17.8
